The NIST ThermoML archive (doi:10.1016/j.tca.2010.08.002)

Assay: molar heat capacity at saturation pressure
Details: Vacuum adiabatic calorimetry

CCCCn1cc[n+](C)c1.O=S(=O)([O-])C(F)(F)F [1-butyl-3-methylimidazolium trifluoromethanesulfonate]
Details | molar heat capacity [J/K/mol]
170.36 K, Crystal | 235.9
171.28 K, Crystal | 236.8
172.71 K, Crystal | 238.3
173.26 K, Crystal | 238.8
175.07 K, Crystal | 240.6
175.23 K, Crystal | 240.9
177.2 K, Crystal | 242.9
177.42 K, Crystal | 243.1
179.17 K, Crystal | 245
179.77 K, Crystal | 245.6
181.13 K, Crystal | 247.1
182.11 K, Crystal | 248.1
183.1 K, Crystal | 249.2
184.46 K, Crystal | 250.6
185.06 K, Crystal | 251.3
186.8 K, Crystal | 253.2
187.02 K, Crystal | 253.5
188.97 K, Crystal | 255.7
189.13 K, Crystal | 255.8
190.92 K, Crystal | 257.9
191.47 K, Crystal | 258.4
192.87 K, Crystal | 260
193.8 K, Crystal | 260.9
194.82 K, Crystal | 262.1
196.12 K, Crystal | 263.5
196.77 K, Crystal | 264.3
198.44 K, Crystal | 266.1
198.72 K, Crystal | 266.6
200.66 K, Crystal | 268.7
200.76 K, Crystal | 268.7
202.67 K, Crystal | 271
203.13 K, Crystal | 271.4
204.73 K, Crystal | 273.3
205.57 K, Crystal | 274.2
206.78 K, Crystal | 275.7
208 K, Crystal | 276.9
208.82 K, Crystal | 278.1
210.42 K, Crystal | 279.6
210.87 K, Crystal | 280.4
212.84 K, Crystal | 282.5
212.92 K, Crystal | 282.7
214.96 K, Crystal | 285
215.25 K, Crystal | 285.3
217 K, Crystal | 287.4
217.66 K, Crystal | 288
219.02 K, Crystal | 289.6
220.07 K, Crystal | 290.8
221.05 K, Crystal | 292.2
222.47 K, Crystal | 293.7
223.08 K, Crystal | 294.5
224.86 K, Crystal | 296.5
225.1 K, Crystal | 296.8
227.12 K, Crystal | 299.4
227.25 K, Crystal | 299.4
229.13 K, Crystal | 301.7
229.63 K, Crystal | 302.3
231.14 K, Crystal | 304
232 K, Crystal | 305.2
233.14 K, Crystal | 306.6
234.37 K, Crystal | 308.1
235.15 K, Crystal | 308.9
236.73 K, Crystal | 311
237.14 K, Crystal | 311.5
239.09 K, Crystal | 313.8
239.13 K, Crystal | 313.8
241.12 K, Crystal | 316.1
241.44 K, Crystal | 316.7
243.1 K, Crystal | 318.7
243.78 K, Crystal | 319.6
245.08 K, Crystal | 321
246.12 K, Crystal | 322.2
247.06 K, Crystal | 323.3
248.45 K, Crystal | 325.1
249.03 K, Crystal | 325.9
250.76 K, Crystal | 328
250.78 K, Crystal | 328
250.99 K, Crystal | 328.3
252.81 K, Crystal | 330.6
252.95 K, Crystal | 330.6
253.1 K, Crystal | 330.8
254.78 K, Crystal | 332.9
254.91 K, Crystal | 333.2
255.41 K, Crystal | 333.7
256.73 K, Crystal | 335.5
256.86 K, Crystal | 335.5
257.72 K, Crystal | 336.3
258.69 K, Crystal | 337.8
258.81 K, Crystal | 337.8
260.02 K, Crystal | 339.2
260.34 K, Crystal | 339.8
260.64 K, Crystal | 340.4
260.75 K, Crystal | 340.4
262.32 K, Crystal | 342.1
262.38 K, Crystal | 342.4
262.59 K, Crystal | 342.7
262.69 K, Crystal | 342.7
264.34 K, Crystal | 345
264.53 K, Crystal | 345.3
264.6 K, Crystal | 345
264.62 K, Crystal | 345.3
265.54 K, Crystal | 346.1
266.29 K, Crystal | 347.3
266.46 K, Crystal | 347.6
266.56 K, Crystal | 347.6
266.89 K, Crystal | 347.9
267.48 K, Crystal | 348.7
268.23 K, Crystal | 349.9
268.4 K, Crystal | 349.9
268.49 K, Crystal | 350.2
269.17 K, Crystal | 350.7
291.91 K, Liquid | 424.4
293.17 K, Liquid | 425
293.82 K, Liquid | 425.6
294.28 K, Liquid | 425.6
295.28 K, Liquid | 426.2
295.44 K, Liquid | 426.2
295.71 K, Liquid | 426.5
297.38 K, Liquid | 427
297.43 K, Liquid | 427.3
297.61 K, Liquid | 427.6
299.48 K, Liquid | 428.2
301.69 K, Liquid | 429.6
304 K, Liquid | 430.8
306.31 K, Liquid | 431.9
308.62 K, Liquid | 433.1
310.93 K, Liquid | 434.5
313.24 K, Liquid | 435.7
315.55 K, Liquid | 436.8
317.86 K, Liquid | 438
320.17 K, Liquid | 439.1
322.48 K, Liquid | 440.6
324.79 K, Liquid | 441.7
327.1 K, Liquid | 443.2
329.4 K, Liquid | 444.3
331.71 K, Liquid | 445.5
334.02 K, Liquid | 446.6
336.33 K, Liquid | 448.1
338.64 K, Liquid | 449.2
340.94 K, Liquid | 450.7
343.24 K, Liquid | 451.8
345.55 K, Liquid | 453
347.85 K, Liquid | 454.3
350.16 K, Liquid | 455.5
352.47 K, Liquid | 456.9
354.77 K, Liquid | 458.1
357.08 K, Liquid | 459.5
359.38 K, Liquid | 460.7
361.68 K, Liquid | 461.8
363.99 K, Liquid | 463
366.29 K, Liquid | 464.4
368.59 K, Liquid | 465.6
